{
  "source": "patent US6627653B2",
  "about": "“Anticonvulsant derivatives useful for the treatment of depression” (Ortho-McNeil Pharmaceutical, Inc., priority 2000, dated 2003)",
  "key": {"[1]": {"test": "Clinical case study, Example 2: topiramate add-on therapy", "format": "in vivo, human", "conditions": "for previous pharmacological treatment of patient's depression, outcome: treatment history of the Example 2 patient", "description": "Initially the patient was started on topiramate add-on therapy at 25 mg/day, with increased dosage to 150 mg/day over the course of one month, in response to the patient's clinical behavior (the patient experienced suicidal ideation). One month later, the topiramate therapy was further increased to 300 mg/day, with the patient also taking 20 mg/day methylphenidate and 150 mg/day venlafaxine."}, "[2]": {"conditions": "adjunctive therapy or monotherapy; cited from earlier work"}, "[3]": {"conditions": "animal model of kindled epilepsy; cited from earlier work"}, "[4]": {"test": "Clinical case study, Example 1: topiramate added to existing pharmacotherapy", "format": "in vivo, human", "description": "In the first case, the patient was a person who had suffered from depression for 25 years.\nTopiramate was prescribed for the patient as add-on therapy to existing treatment of venlafaxine at 225 mg/day and mirtazapine at 30 mg/day. Topiramate treatment was initiated at 25 mg/day, with increased dosage to 150 mg/day. […] After six months, mirtazapine was withdrawn and topiramate daily dosage increased to 200 mg/day.\nFollowing one year, topiramate and venlafaxine were withdrawn because of a surgical procedure. […] The patient was subsequently restarted on topiramate at 300 mg/day."}, "[5]": {"conditions": "several rodent models of epilepsy; cited from earlier work"}},
  "note": "Read-outs that look alike come from different tables or passages of the source.",
  "data": [
    {"smiles": "N[C@@H]1C[C@H]1c1ccccc1", "note": "(racemic) [tranylcypromine]", "values": [
      {"measurement": "previous pharmacological treatment of patient's depression, outcome", "setting": "[1]", "value": "unsuccessful"}
    ]},
    {"smiles": "CN(C)CCC=C1c2ccccc2CCc2ccccc21", "note": "[amitriptyline]", "values": [
      {"measurement": "previous pharmacological treatment of patient's depression, outcome", "setting": "[1]", "value": "unsuccessful"}
    ]},
    {"smiles": "CC1(C)O[C@@H]2[C@@H](CO[C@@]3(COS(N)(=O)=O)OC(C)(C)O[C@@H]23)O1", "note": "[topiramate, 2,3:4,5-bis-O-(1-methylethylidene)-β-D-fructopyranose sulfamate]", "values": [
      {"measurement": "efficacy in treating seizures", "setting": "[2]", "value": "effective"},
      {"measurement": "block of seizures", "setting": "[3]", "value": "effectively block seizures"},
      {"measurement": "patient-reported state", "setting": "[1]; after three month of treatment", "value": "never felt so well"},
      {"measurement": "mood state", "setting": "[1]; at eight months of therapy, venlafaxine 150 mg/day and topiramate 300 mg/day", "value": "normothymic"},
      {"measurement": "clinical rating of depression", "setting": "[1]; topiramate 300 mg/day with methylphenidate 20 mg/day and venlafaxine 150 mg/day, about two months", "value": "much improved"},
      {"measurement": "clinical evaluation of depression", "setting": "[4]; after eight months, topiramate 300 mg/day", "value": "very much improved"},
      {"measurement": "clinical evaluation of depression", "setting": "[4]; after six months, mirtazapine withdrawn, topiramate 200 mg/day", "value": "very much improved"},
      {"measurement": "clinical evaluation of depression", "setting": "[4]; after two months, topiramate 150 mg/day add-on to venlafaxine 225 mg/day and mirtazapine 30 mg/day", "value": "very mild depressive"},
      {"measurement": "patient-reported state after restart", "setting": "[4]; restarted on topiramate 300 mg/day after relapse, following six months of treatment", "value": "feeling very well"},
      {"measurement": "block of seizures", "setting": "[5]", "value": "effectively block seizures"}
    ]}
  ]
}
